Assay results reported in US7101719B2, “Support and method for cell based assays” (GE Healthcare Limited, priority 2000, dated 2006).

What was measured:
Type in all cases: cell-based
[1] = system: HeLa cells; test: Parallel assay of incorporation of [35S]methionine into HeLa cells on CYTODEX/YOx Microcarriers (Example 3); settings: cycloheximide 10 μM, without inhibitor 900 IODs, 'no cell' controls 650 IODs, FIG. 4
Protocol: (§1) 40 mg of YOx-loaded CYTODEX™ Microcarrier beads were dispensed into suitable sterile containers and allowed to settle. The supernatant was removed from each microcarrier pellet and the beads resuspended in 5 ml of either complete Ham's F12 nutrient mix (Sigma N-4888) or DMEM (Sigma D-6546), both containing 10% FCS, 2 mM L-glutamine and 50 μg/ml streptamycin/50 IU/ml penicillin. The microcarriers were incubated at 37° C. for thirty minutes without rolling.
(§2) 10×10^6 CHO or HeLa cells in 5 ml complete medium were added to separate microcarrier preparations and the cultures incubated at 37° C. for thirty minutes without rolling. After the initial incubation cultures were incubated overnight at 37° C. with rolling. Following the overnight incubation, unattached cells were removed and the beads resuspended in 10 ml complete culture medium. Microcarriers/cells were maintained in culture until the cell density had reached a sufficient level. Culture medium was replaced every two days.
(§3) Cycloheximide was prepared as a 1 mM stock in phosphate buffered saline and added to the cultures at a final concentration of 10 μM. […]
(§4) Each microcarrier preparation was allowed to settle and the growth medium removed. […] Plates were read on the LEADseeker™ Imaging System with a 5 minute exposure time to detect cellular associated methionine.

[2] = system: CHO cells; test: Parallel assay of incorporation of [35S]methionine into CHO cells on CYTODEX/YOx Microcarriers (Example 3); settings: cycloheximide 10 μM, without inhibitor 1700 IODs, 'no cell' controls 650 IODs, FIG. 4
Protocol: as §1, §2, §3, §4

[3] = system: CHO cells; test: Uptake of radiolabelled methionine into CHO cells cultured on CYTODEX/YOx Microcarriers (Example 2); settings: cycloheximide 10 μM final concentration; CCD imaging; FIG. 1
Protocol: CYTODEX™ and CYTODEX™/YOx Microcarrier beads were dispensed into sterile universal containers. Beads were collected by centrifugation at 100 rpm for one minute. Supernatants were removed and replaced with complete Ham's F12 nutrient mix containing 10% (v\v) FCS. Beads were incubated with rolling at 37° C. for 30 minutes. Beads were harvested by centrifugation at 100 rpm for 1 minute. Spent medium was removed and replaced with 10^7 cells in 500 μl or less. Beads plus cells were incubated at 37° C. for 20 minutes to permit cell attachment to beads. Fresh Ham's F12 medium was added to a final volume of 4 ml containing 5 mg/ml beads for [^35S] and 10 mg/ml for [^14C] or [^3H]. Beads were left to roll overnight at 37° C. Following overnight incubation, beads/cells were harvested by centrifugation at 100 rpm for 1 minute. Supernatant containing unattached cells was removed. Microcarrier beads were washed with PBS (×1) and resuspended in methionine deficient DMEM supplemented with radiolabelled methionine. Cultures were returned to 37° C. with rolling. [^3H]Methionine and [^14C] or [^35S]methionine were included at final concentrations of 8 μCi/ml and 4 μCi/ml respectively. […]

Structure (SMILES): C[C@@H]1C[C@@H]([C@H](O)CC2CC(=O)NC(=O)C2)C(=O)[C@@H](C)C1 [cycloheximide]
- signal of [35S]methionine incorporation in the presence of protein synthesis inhibitor [1]: 600 IODs
- signal of [35S]methionine incorporation in the presence of protein synthesis inhibitor [2]: 650 IODs
- uptake of [35S]methionine into CHO cells [3]: inhibited
